# Laboratory results reported in US8207136B2, “Nucleoside compounds and methods of use thereof” (The Board of Trustees of the University of Illinois, priority 2005, dated 2012).
# Columns and labels:
# HUVECs [1] = experiment: Proliferation inhibition assay; type: cell-based; conditions: Homo sapiens, HUVEC; 10 ng/ml VEGF, 24, 48 or 72 hours, average from two trials; read-out: IC50, HUVEC growth
# Description: (§1) Different angiogenesis assays such as cord formation assay, motility assay and proliferation inhibition assay were performed at the developmental therapeutics program (DTP) branch of NCI (NCI/DTP) as described. HUVECs were used for all the assays. Taxol and TNP-470 were used as positive control for the assays.
# For proliferation inhibition assay, HUVECs were grown in the absence of growth factors for 24 hours and then stimulated with 10 ng/ml VEGF and were treated with either DMSO or different concentrations of ARC for 24 hours, 48 hours or 72 hours.
# [2] = tested on: phospho-RNA polymerase II; experiment: Immunoblot of phospho-RNA polymerase II in HCT-116 cells; type: cell-based, human; conditions: 3 hours
# Description: Immunoblotting was performed as described with antibodies specific for p53 (sc-126 HRP; Santa Cruz), hdm2 (sc-965; Santa Cruz), p21 (556431; BD Pharmingen), Sp1 (sc-59; Santa Cruz), survivin (sc-10811; Santa Cruz), phospho RNA polymerase II (4735; Cell Signaling), total RNA polymerase II (8WG16; a gift from Dr. Schlegel, University of Illinois at Chicago), α-tubulin (T9026; Sigma), cleaved caspase-3 (9664; Cell Signaling), caspase-9 (9502; Cell Signaling) and β-actin (A5441; Sigma) antibodies.
# It is known that DRB and flavopiridol inhibit transcription by blocking the kinase activity of P-TEFb, which in turn leads to decreased phosphorylation of RNA polymerase II C-terminal domain (CTD). To determine if ARC operates by a similar mechanism, a kinase assay was performed with purified P-TEFb using GST-CTD (GST tagged C-terminal domain of RNA polymerase II) as the substrate. […] To evaluate this effect in vivo, HCT-116 cells were treated with ARC for 3 hours and analyzed levels of phospho-RNA polymerase II by immunoblotting. While the total amount of RNA polymerase II remained unchanged, phosphorylation of the RNA polymerase II CTD decreased upon ARC treatment (FIG. 2D), consistent with the in vitro kinase assay.
# p53 = experiment: Gel shift assay with purified p53 phosphorylated by P-TEFb; type: binding; conditions: purified p53, different concentrations
# Description: Either purified p53 protein or nuclear extracts were used in the gel shift assays. For preparation of nuclear extracts, cells treated either with DMSO or different agents (doxorubicin, ARC and actinomycin D) were harvested 24 hours later and lysed in hypotonic buffer (10 mM HEPES pH 7.9, 1.5 mM MgCl2, 10 mM KCl, 0.2 mM PMSF, 0.5 mM DTT, 1 mM Na3VO4, 1 mM NaF, 1 mM Aprotinin and 1 mM Leupeptin), nuclei pelleted and treated with high-salt buffer (20 mM HEPES pH 7.9, 20% (v/v) glycerol, 1.5 mM MgCl2, 0.5 M KCl, 0.2 mM EDTA, 0.2 mM PMSF, 0.5 mM DTT, 1 mM Na3VO4, 1 mM NaF, 1 mM Aprotinin and 1 mM Leupeptin). Nuclear extracts (10 μg) or purified p53 protein (100 ng) were incubated with 0.5 ng of p53 consensus double-stranded oligos (5′-TACAGAACATGTCTAAGCATGCTGGGGACT-3′; Santa Cruz Biotechnology) that were labeled with [γ^32P]ATP. As a control, anti-p53 antibody (PAb421, EMD Biosciences) was used to supershift the p53/DNA complex. The reaction mixtures were resolved on a 4% acrylamide DNA-retardation gel, dried and exposed to X-ray film in the presence of intensifying screen.
# In order to evaluate this activity, an in vitro kinase assay was performed with purified p53 protein and P-TEFb in the presence of different concentrations of ARC.
# [3] = tested on: LIM1215 colon cancer cells; experiment: Apoptosis by PI staining and flow cytometry in LIM1215 cells; type: cell-based, human
# Description: For Flow Cytometry, cells were fixed in 70% ethanol and stored at −20° C. until further analysis. Equal numbers of fixed cells were then stained with PI solution (0.1% Triton X-100, 0.2 mg/ml DNase free RNase, 0.02 mg/ml propidium iodide) made in PBS for 15 min at 37° C. and analyzed by a flow cytometer.
# In order to evaluate the extent to which ARC induces apoptosis relative to that of the other known nucleoside analog DRB, LIM1215 colon cancer cells were treated with either ARC or DRB for 48 hours.
# HUVECs [4] = experiment: Cord formation assay; type: cell-based; conditions: Homo sapiens, HUVEC, 24 hours, averages from three trials
# Description: as §1
# For cord formation assay, HUVECs were plated on a three dimensional layer of Matrigel, where the cells formed cord-like structures. Later, the cells were treated with vehicle (DMSO) or different concentrations of ARC for 24 hours, after which cord formation was quantitated as a function of cord junctions and cord length.
# p21 promoter = experiment: p21 promoter-lacZ reporter screen in LIM1215 colon carcinoma cells; type: cell-based, human; conditions: 10 μM, 24 hours
# Description: LIM1215 colon carcinoma cells harboring the lacZ reporter gene under the control of a 2.3 kb p21 promoter (containing two p53 binding sites) were grown in 96-well plates. Diversity set, a chemical compound library containing approximately 2000 compounds (dissolved in DMSO), was obtained from the National Cancer Institute (NCI) and was used at a final concentration of 10 μM on the cells for 24 hours. lacZ encoded β-Gal was detected by X-Gal staining as described previously.
# In order to find small molecule transcriptional inhibitors of p21, we generated LIM1215 colon cancer cells, carrying lacZ under the control of p21 promoter, as a screening system for testing ˜2000 structurally diverse compounds (Diversity Set) obtained from National Cancer Institute (NCI). […] To determine if these effects mediated by ARC were dose-dependent, we treated HCT-116 colon carcinoma cells with different concentrations of ARC.
smiles,measurement,setting,value
"NNc1c(C(N)=O)c2c(N)ncnc2n1[C@@H]1O[C@H](CO)[C@@H](O)[C@H]1O [ARC, 4-amino-6-hydrazino-7-beta-D-ribofuranosyl-7H-pyrrolo[2,3-d]-pyrimidine-5-carboxamide]",IC50,HUVECs [1],~47 nM
same,phosphorylation of the RNA polymerase II CTD in cells,[2],decreased
same,DNA binding of p53 phosphorylated by P-TEFb,p53,inhibited this process in a dose-dependent manner
same,"apoptosis (PI staining, flow cytometry)","[3]; 5 μM, 48 hours",37.8%
same,efficiency in inducing apoptosis relative to DRB,[3]; LIM1215 cells (FIG. 5F),> 10 fold
same,IC50,"HUVECs [4]; read-out: IC50, cord junctions",~345 nM
same,IC50,"HUVECs [4]; read-out: IC50, cord length",~382 nM
same,p21 promoter driven β-Gal expression,p21 promoter,inhibit p21 promoter
